Data taken from patent publication US7422867B2, “Methods of identifying compounds that modulate IL-4 receptor mediated IgE synthesis utilizing a CLLD8 protein” (Rigel Pharmaceuticals, Inc., priority 2002, dated 2008).

Experiments:
[1] = tested on: IL-4 induced germline ε transcription (ε promoter reporter in A5T4 cells); assay: Re-infection (DNA transfer) assay in naïve A5T4 reporter cells; functional profile of mutants; type: cell-based, human; settings: for Reporter Ratio: screening in the A5T4 reporter line, wild type and mutants
Description: The ability of peptide CL02A3 wt to inhibit germline ε transcription was confirmed in naïve cells. Briefly, Phoenix cells were transfected with a retroviral vector encoding a BFP-CL02A3 wt peptide fusion as described in WO 99/58663 and WO 97/27213. Naïve A5T4 cells were infected with the resultant virions and grown for 3 days. The infected cells were stimulated with IL-4 (60 U/mL) and, after 3 days, the cells were assessed by FACS for BFP and GFP.
A collection of CL02A3 mutants was generated by replacing single or double amino acid residues in the sequence of CL02A3 wt with a different amino acid, typically an alanine or glycine, as described in copending application Ser. No. 10/095,659, entitled Methods of Identifying Protein Targets, filed Mar. 8, 2002. The functional profiles for the mutants derived from CL02A3 wt was obtained by constructing and screening for activity in the A5T4 reporter cell line in the manner described above. The activity of each mutant at the germline ε promoter is reflected in the reporter ratio, as described above. The reporter ratios were the functional values that were used to develop the functional profiles.
TABLE 2 depicts the amino acid sequences (the dual alanine mutations are underlined) of the mutants tested and the measured reporter ratios when screening in the A5T4 reporter line.
Comparison of the interaction and functional profiles was performed by categorizing the mutants of CL02A3 based on the functional and interaction assays. Based on the reporter ratio, described in panel C of FIG. 4, each mutant was categorized into one of four functional categories: (1) reduction of function (ROF); (2) loss of function (LOF); (3) increase of function (IOF) or (4) functionally neutral (N), as compared to the activity of the wild type peptide, here CL02A3 wt. As mentioned previously, cells expressing a peptide that inhibits germline ε transcription have reporter ratios of ≧1.1. Cells expressing a loss of function mutant have a reporter ratio of […]. […] Functionally neutral mutants have reporter ratios that fall within ±50% of that of the CL02A3 wt peptide. The % increase or decrease in reporter ratio is calculated after subtracting 1.0 from the individual ratios. Using these criteria, peptides CL02A3LG (SEQ ID NO:2), CL02A3TP (SEQ ID NO:4), and CL02A3EQ (SEQ ID NO:5) were designated as IOF mutants, peptide CL02A3LGW (SEQ ID NO:3), CL02A3HH (SEQ ID NO:8), CL02A3PW (SEQ ID NO:9) were designated as ROF mutants, peptides CL02A3HG (SEQ ID NO:6), and CL02A3GC (SEQ ID NO:7) were designated as neutral, and peptide CL02A3AM (SEQ ID NO:10) was designated as a LOF mutant.

[2] = biological target: T1, human CLLD8 protein (hCLLD8) (Homo sapiens, UniProt Q96T68, E117G/V473M); assay: β-galactosidase yeast two hybrid (YTH) interaction assay; type: binding
T1 construct: expressed in transfected cells; prey cDNA came from a library of the A5T4 (BJAB-derived human B-cell) reporter line
T1 sequence (Q96T68 1-719 E117G/V473M): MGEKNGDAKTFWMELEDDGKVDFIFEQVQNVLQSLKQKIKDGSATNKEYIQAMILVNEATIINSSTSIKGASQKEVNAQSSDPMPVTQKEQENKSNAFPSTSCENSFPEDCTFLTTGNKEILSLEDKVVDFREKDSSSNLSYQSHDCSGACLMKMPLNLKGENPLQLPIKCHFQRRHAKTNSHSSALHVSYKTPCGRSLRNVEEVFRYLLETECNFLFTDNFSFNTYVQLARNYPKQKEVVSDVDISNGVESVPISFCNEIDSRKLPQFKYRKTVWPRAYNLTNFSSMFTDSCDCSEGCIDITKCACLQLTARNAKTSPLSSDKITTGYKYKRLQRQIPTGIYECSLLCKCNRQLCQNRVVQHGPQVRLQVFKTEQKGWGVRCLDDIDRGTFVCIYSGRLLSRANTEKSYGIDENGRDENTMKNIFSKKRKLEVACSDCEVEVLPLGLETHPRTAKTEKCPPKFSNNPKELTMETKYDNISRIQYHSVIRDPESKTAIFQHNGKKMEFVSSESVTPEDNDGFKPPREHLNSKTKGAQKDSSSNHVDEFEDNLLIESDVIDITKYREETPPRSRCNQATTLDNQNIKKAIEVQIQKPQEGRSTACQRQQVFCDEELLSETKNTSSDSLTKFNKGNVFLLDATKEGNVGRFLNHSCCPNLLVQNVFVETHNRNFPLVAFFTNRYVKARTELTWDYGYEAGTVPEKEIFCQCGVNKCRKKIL
Description: Potential binding partners for peptide CL02A3 wt were identified in a β-galactosidase yeast two-hybrid (YTH) assay using peptide CL02A3 wt as bait and a cDNA library constructed from the A5T4 reporter cell line as prey. Binding was assessed by β-galactosidase quantification using BetaFluor (Novagen) as a substrate. A negative interaction control (no cDNA fused downstream of the GAL4 activation domain sequence) was also run. A general outline of the YTH assay is illustrated in FIG. 5A. Following clustering, filtering to remove non-specific bait hits (e.g., GFP and BFP), singletons and clusters recognized by 10 or more cDNA baits (based upon historical YTH assays), and prioritization, 64 prey clones were identified as hits.
Potential targets identified in the YTH assay were reconfirmed as generally outlined in FIG. 6. The cDNA clones identified as hits in the YTH assay were purified and rescreened for interaction with the CL02A3 wt peptide in a YTH assay. The hit clones were also screened in a control assay for interaction with the BFP using a vector (pGBKT7) that contained only the BFP and not the CL02A3 peptide. At this stage, 51 putative target clones remained.
The interaction of CL02A3 wt peptide and its mutants with the clones identified as potential targets for the peptide CL02A3 wt was then quantified in a β-galactosidase YTH assay. The YTH assay was performed in the manner described above. A general outline of this YTH assay is illustrated in FIG. 5B. For each clone tested, an interaction profile was developed by comparing the β-galactosidase activity of each mutant to that of the wild type peptide, as described above.
The interaction of these IOF, ROF and LOF mutants with different polypeptides encoded by the putative target clones were quantified using the YTH assay described above. […]

[3] = tested on: endogenous germline α promoter; assay: TAQMAN assay of endogenous germline α promoter transcription in ST486 cells; type: cell-based; settings: ST486 cells stimulated with TGF-β 40 ng/ml; average of 3 values
Description: The assay was similar to that described in the immediately preceding section, except that ST486 cells (ATCC # CRL-1647) engineered to express the tetracycline-regulated transactivator were infected and the infected cells were stimulated with TGF-β (40 ng/ml; Peprotech). The primers and probe, which are specific for the transcription product driven by the ST486 endogenous α promoter, were as follows (the probe was labeled at the 5′-end with Fam and at the 3′-end with Tamra): […]

binding to human CLLD8 protein in yeast two hybrid interaction assay [2] | Sequence | Reporter Ratio [1] | further results
 | RAHGHHGWPWGMEQGCTPLG (peptide encoded by synthetic oligomer) [CL02A3AM] |  | functional category compared to CL02A3 wt, based on reporter ratio ([1]; % change calculated after subtracting 1.0 from the ratios): LOF (Cells expressing a loss of function mutant have a reporter ratio of <1.11)
 | AMHGAAGWPWGMEQGCTPLG (peptide encoded by synthetic oligomer) [CL02A3HH] | 1.29 | 
 | AMHGHHGWPWGMEQGCAALG (peptide encoded by synthetic oligomer) [CL02A3TP] | 1.91 | 
found to bind | AMHGHHAAPWGMEQGCTPLG (peptide encoded by synthetic oligomer) [CL02A3GW] |  | 
found to bind | AMHGHHGWPWGMEQGCTPAA (peptide encoded by synthetic oligomer) [CL02A3LG] |  | 
 | AMHGHHGWPWGMAAGCTPLG (peptide encoded by synthetic oligomer) [CL02A3EQ] | 2.23, | 
 | AMHGHHGWAAGMEQGCTPLG (peptide encoded by synthetic oligomer) [CL02A3PW] | 1.24 | 
 | AMAAHHGWPWGMEQGCTPLG (peptide encoded by synthetic oligomer) [CL02A3HG] | 1.5 | 
 | AMHGHHGWPWGMEQAATPLG (peptide encoded by synthetic oligomer) [CL02A3GC] | 1.89 | 
found to bind | AMHGHHGWPWGMEQGCTPLG (peptide encoded by synthetic oligomer) [CL02A3wt] |  | endogenous α inhibition ratio [3]: 0.89
